Experimental data reported in US20180006232A1, “HETEROCYCLIC COMPOUND, LIGHT-EMITTING ELEMENT, LIGHT-EMITTING DEVICE, ELECTRONIC APPLIANCE, AND LIGHTING DEVICE” (Semiconductor Energy Laboratory Co., Ltd., priority 2014, published 2018).
Read-outs that look alike come from different tables or passages of the source.

Assay: Examination of solubility in organic solvents
Format: physicochemical
Conditions: for solubility: organic solvent or mixture, thermodynamic from solid
Description: The heterocyclic compound which is one embodiment of the present invention and used in this example was 2mFBPDBq (sample 1). Note that 2mFBPDBq was synthesized by the synthesis method described in Example 1. In addition, the compound used for comparison was 2mDBTBPDBq-II (comparison sample 2). The purity of each compound was 99.9%. The structural formulae of the compounds are shown below.
The solvents used in this example were the four kinds of solvents: toluene, chloroform, ethyl acetate, and acetone.
A method of examining the solubility of the compound of each sample is described. First, 10 mg of the compound was put into a small bottle and to this was added 1 mL of a solvent. Then, whether the compound was dissolved at room temperature or not was checked. When the compound was not dissolved at room temperature, ultrasonic wave irradiation and then heating using a dryer were performed, so that whether the compound was dissolved was checked.
When the compound was not dissolved after heating, the volume of the solvent was increased to 10 mL, so that whether the compound was dissolved at room temperature was checked. When the compound was not dissolved at room temperature, ultrasonic wave irradiation and then heating using a dryer were performed, so that whether the compound was dissolved was checked.

Structure (SMILES)	solubility	Solubility in Acetone (acetone, 10 mg compound in 1 mL, then 10 mL, room temperature, then ultrasonic wave irradiation and heating)	Solubility in Chloroform (chloroform, 10 mg compound in 1 mL, then 10 mL, room temperature, then ultrasonic wave irradiation and heating)	Solubility in Ethyl acetate (ethyl acetate, 10 mg compound in 1 mL, then 10 mL, room temperature, then ultrasonic wave irradiation and heating)	solubility (toluene, 10 mg compound in 1 mL, then 10 mL, room temperature, then ultrasonic wave irradiation and heating, read-out: Solubility in Toluene)	Solubility compared with comparison compound 2mDBTBPDBq-II (organic solvents (toluene, chloroform, ethyl acetate, acetone), summary in words)
c1cc(-c2cccc(-c3cccc4c3sc3ccccc34)c2)cc(-c2cnc3c4ccccc4c4ccccc4c3n2)c1 [2mDBTBPDBq-II, 2-[3′-(dibenzothiophen-4-yl)biphenyl-3-yl]dibenzo[f,h]quinoxaline, reference compound]	< 1000 µg/mL					
CC1(C)c2ccccc2-c2ccc(-c3cccc(-c4cccc(-c5cnc6c7ccccc7c7ccccc7c6n5)c4)c3)cc21 [2mFBPDBq, 2-{3-[3-(9,9-dimethylfluoren-2-yl)phenyl]phenyl}dibenzo[f,h]quinoxaline]		□ (dissolved at 10 mg/10 mL when heated)	◯ (dissolved at 10 mg/mL when heated)	□ (dissolved at 10 mg/10 mL when heated)	> 10000 µg/mL	higher solubility
